Where two headings read alike, the source gives them in different places.
Assays:
[1] = tested on: human colon cancer cell line HCT116; experiment: Measurement of cell proliferation inhibitory activity (Cell Counting Kit-8); format: cell-based; conditions: Homo sapiens, HCT-116, 96 h, HCT116, 4 days incubation, read-out: IC50 (50% proliferation inhibitory concentration)
Protocol: The cell proliferation inhibitory activities of the compounds and salts shown in Tables 1-1, 1-2 and Table 2 were measured as follows, using the human colon cancer cell line HCT116 (American Type Culture Collection, VA, USA). 2000 to 3000 cells per well of the human colon cancer cell line HCT116 was placed in a 96-well culture plate, a predetermined concentration (0.00038 μM, 0.00076 μM, 0.0015 μM, 0.0031 μM, 0.0061 μM, 0.012 μM, 0.024 μM, 0.049 μM, 0.098 μM, 0.195 μM, 0.39 μM, 0.78 μM, 1.56 μM, 3.13 μM, 6.25 μM, 12.5 μM, 25 μM or 50 μM) of the test substance was added thereto, and the mixture was then incubated at 37° C. under 5% CO2 environment for 4 days. On day 4 of incubation, the Cell Counting Kit-8 solution (Dojindo Laboratories) was added, the absorbance (measurement wavelength: 450 nm; reference wavelength: 615 nm) was measured following the protocol attached to the kit, and the 50% proliferation inhibitory concentration (IC50) was calculated.

[2] = Calculation of AUC value (plasma concentration after oral administration); format: in vivo; conditions: BALB/c (nu/nu), mouse, mice, plasma 15 min to 24 h, trapezoidal method, read-out: AUC (area under the blood concentration-time curve)
Protocol: The AUC (area under the blood concentration-time curve) values of the compounds and salts shown in Table 2 (only compound 1j-2-16-2 is Na salt; the others are free form) were calculated by administering the test substance to an animal and measuring its concentration in plasma. As the animals, BALB/c (nu/nu) mice (4 to 6 weeks old) procured from Japan Charles River Laboratories were used after a one-week taming period. As for the test substances other than Comp. 1, 5 mg/mL of the substance solution was given at 0.2 mL/10 g body weight (dose of the test substance: 100 mg/kg body weight). As for Comp. 1, 10 mg/mL of the substance solution was given at 0.2 mL/10 g body weight (dose of the test substance: 200 mg/kg body weight). Administration of the substance solution to a mouse was performed forcibly using an oral feeding tube. Blood was collected from the eye pit 15 minutes, 2 hours, 7 hours and 24 hours after administration of the substance solution, using a hematocrit tube treated with heparin. Paraoxon (final concentration: 1 mM) was added to the collected blood as a stabilizer, the mixture was centrifuged at 10000 rpm for 3 minutes, and plasma was separated. The plasma was stored in a freezer set to −80° C. until the time of measurement. The measurement was carried out as follows. 100 μL of distilled water to which the internal standard substance (a structural homolog, concentration adjusted appropriately depending on the compound used) had been added was added to 5 μL of the plasma, and then, a measurement sample was prepared through solid phase extraction processing using an Oasis HLB μElution Plate (Waters), and was analyzed by LC/MS/MS. The plasma concentration was calculated using a calibration curve prepared based on the ratio of standard substance to internal standard substance in control plasma of mice. The AUC was calculated from the data of plasma concentration of the drug by the trapezoidal method using Microsoft Excel 2003 (Microsoft).

SMILES	IC50 ([1]; Table 2)	AUC ([2]; 100 mg/kg body weight)	further results
CCS(=O)(=O)Nc1cccc(Cc2c(C)c3cc(Cl)c(Oc4ncccn4)cc3oc2=O)c1 [Comp. 1, reference compound]			IC50 ([1]; Table 1-2): 160 nM; AUC ([2]; 200 mg/kg body weight (Comp. 1)): 97.6 µM·h
CNS(=O)(=O)Nc1cccc(Cc2c(C)c3ccc(OC(=O)N(C)C)cc3oc2=O)n1 [Compound 1j-1-13-2, Dimethylcarbamic acid 4-methyl-3-{6-(methylaminosulfonyl)aminopyridin-2-ylmethyl}-2-oxo-2H-1-benzopyran-7-yl ester]	271 nM		AUC ([2]; in vivo, 100 mg/kg body weight): 314 µM·h
Cc1c(Cc2cccc(NS(N)(=O)=O)c2F)c(=O)oc2cc(Oc3ncccn3)ccc12 [Compound 1j-2-4-1, 3-{2-Fluoro-3-(aminosulfonyl)aminobenzyl}-4-methyl-7-(pyrimidin-2-yloxy)-2-oxo-2H-1-benzopyran]	150 nM	811 µM·h	
CNS(=O)(=O)Nc1cccc(Cc2c(C)c3ccc(Oc4ncccn4)cc3oc2=O)c1F [Compound 1j-2-4-2, 3-{2-Fluoro-3-(methylaminosulfonyl)aminobenzyl}-4-methyl-7-(pyrimidin-2-yloxy)-2-oxo-2H-1-benzopyran]	44.7 nM	425 µM·h	
CNS(=O)(=O)Nc1cccc(Cc2c(CF)c3ccc(Oc4ncccn4)cc3oc2=O)c1F [Compound 1j-2-4-2F, 3-{2-Fluoro-3-(methylaminosulfonyl)aminobenzyl}-4-fluoromethyl-7-(pyrimidin-2-yloxy)-2-oxo-2H-1-benzopyran]	165 nM	317 µM·h	
CNS(=O)(=O)Nc1cccc(Cc2c(C)c3cc(F)c(Oc4ncccn4)cc3oc2=O)c1F [Compound 1j-2-5-2, 3-{2-Fluoro-3-(methylaminosulfonyl)aminobenzyl}-4-methyl-7-(pyrimidin-2-yloxy)-6-fluoro-2-oxo-2H-1-benzopyran]	75.1 nM	344 µM·h	
CNS(=O)(=O)Nc1cc(Cc2c(C)c3cc(Cl)c(Oc4ncccn4)cc3oc2=O)ccn1 [Compound 1j-2-12-2, 3-{2-(Methylaminosulfonyl)aminopyridin-4-ylmethyl}-4-methyl-7-(pyrimidin-2-yloxy)-6-chloro-2-oxo-2H-1-benzopyran]	282 nM	252 µM·h	
CNS(=O)(=O)Nc1nccc(Cc2c(C)c3ccc(Oc4ncccn4)cc3oc2=O)c1F [Compound 1j-2-16-2, 3-{2-(Methylaminosulfonyl)amino-3-fluoropyridin-4-ylmethyl}-4-methyl-7-(pyrimidin-2-yloxy)-2-oxo-2H-1-benzopyran]	40.8 nM	3200 µM·h	
CNS(=O)(=O)Nc1cccc(Cc2c(C)c3ccc(Oc4nccs4)cc3oc2=O)c1 [Compound 1j-3-1-2, 3-{3-(Methylaminosulfonyl)aminobenzyl}-4-methyl-7-(thiazol-2-yloxy)-2-oxo-2H-1-benzopyran]	164 nM	199 µM·h	
CNS(=O)(=O)Nc1cccc(Cc2c(C)c3cc(C)c(Oc4nccs4)cc3oc2=O)c1 [Compound 1j-3-8-2, 3-{3-(Methylaminosulfonyl)aminobenzyl}-4-methyl-7-(thiazol-2-yloxy)-6-methyl-2-oxo-2H-1-benzopyran]	96.8 nM	149 µM·h	
CNC(=O)CS(=O)(=O)Nc1cccc(Cc2c(C)c3cc(Cl)c(OC(=O)N(C)C)cc3oc2=O)c1 [Compound 1o-1-3-2, Dimethylcarbamic acid 3-(3-methylcarbamoylmethanesulfonylamino-benzyl)-6-chloro-4-methyl-2-oxo-2H-1-benzopyran-7-yl ester]			IC50 ([1]; Table 1-1): 21 nM
Cc1c(Cc2cccc(NS(=O)(=O)CC(=O)N(C)C)c2)c(=O)oc2cc(OC(=O)N(C)C)c(Cl)cc12 [Compound 1o-1-3-3, Dimethylcarbamic acid 3-(3-dimethylcarbamoylmethanesulfonylamino-benzyl)-6-chloro-4-methyl-2-oxo-2H-1-benzopyran-7-yl ester]			IC50 ([1]; Table 1-1): 16 nM
CNC(=O)CS(=O)(=O)Nc1cccc(Cc2c(C)c3ccc(Oc4nccs4)cc3oc2=O)c1F [Compound 1o-3-4-2, 2-{2-Fluoro-3-[4-methyl-2-oxo-7-(thiazol-2-yloxy)-2H-1-benzopyran-3-ylmethyl]phenylsulfamoyl}-N-methyl-acetamide]	325 nM	367 µM·h	
